# From the supplement of paper PMC10307832
# Tests used:
# Assay in all cases: relative viability (nuclei count vs DMSO), 5 days (fraction); higher = more cells survive
# [1] = compound: CC1=CC=C(C=C1)C(=O)CN2C3=C(CCCC3)SC2=N [Pifithrin_alpha] + CCNC(=O)c1noc(-c2cc(C(C)C)c(O)cc2O)c1-c1ccc(CN2CCOCC2)cc1 [Luminespib] (partner 0.01 µM)
# Outline: (§1)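 Dosing by pin tool came one day after lung cancer cell lines were seeded in 1536-well plates, using either one drug or a fixed anchor-drug dose plus five library-drug doses (not always all listed) in √10 steps. After 5 days, nuclei were counted on 4× images. Relative viability is treated-well nuclei count divided by vehicle-well nuclei count, and values are medians of duplicate plates.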
# [2] = compound: CC1=CC=C(C=C1)C(=O)CN2C3=C(CCCC3)SC2=N [Pifithrin_alpha] + Cc1nc(Nc2ncc(C(=O)Nc3c(C)cccc3Cl)s2)cc(N2CCN(CCO)CC2)n1 [Dasatinib] (partner 0.075 µM)
# Outline: as §1
# [3] = compound: CNC(=O)c1ccccc1Sc1ccc2c(/C=C/c3ccccn3)n[nH]c2c1 [Axitinib] + Cc1nc(NC(=O)N2CCC[C@H]2C(N)=O)sc1-c1ccnc(C(C)(C)C(F)(F)F)c1 [Alpelisib] (partner 2 µM)
# Outline: as §1
# [4] = compound: Nc1nc(Nc2ccc3c(c2)CC[C@@H](N2CCCC2)CC3)nn1-c1cc2c(nn1)-c1ccccc1CCC2 [Bemcentinib] + O=C(CCCCCCC(=O)Nc1ccccc1)NO [Vorinostat] (partner 1 µM)
# Outline: as §1
cell line,measurement,setting,value
NCI-H650,relative viability,[1]; first compound 3.162 µM,0.904
same,relative viability,[1]; first compound 10 µM,0.801
same,relative viability,[1]; first compound 31.62 µM,0.607
same,relative viability,[1]; first compound 100 µM,0.773
same,relative viability,[2]; first compound 3.162 µM,0.489
same,relative viability,[2]; first compound 10 µM,0.441
same,relative viability,[2]; first compound 31.62 µM,0.415
same,relative viability,[2]; first compound 100 µM,0.388
same,relative viability,[3]; first compound 0.005 µM,1.19
same,relative viability,[3]; first compound 0.01581 µM,1.13
same,relative viability,[3]; first compound 0.05 µM,0.868
same,relative viability,[3]; first compound 0.1581 µM,1.02
same,relative viability,[3]; first compound 0.5 µM,1.24
same,relative viability,[4]; first compound 0.04 µM,0.353
same,relative viability,[4]; first compound 0.1265 µM,0.442
same,relative viability,[4]; first compound 0.4 µM,0.378
same,relative viability,[4]; first compound 1.265 µM,0.374
same,relative viability,[4]; first compound 4 µM,0.418
